One assay has as its system Candida albicans. Kind of assay: Antifungal activity against Candida albicans ATCC 14053 at 200 ug/disk. The class given is functional, organism-based.
For a further assay, the system named is Ascobolus. Kind of assay: Antifungal activity against Ascobolus furfuraceus NRRL 6460 assessed as inhibition of radial growth rate at 200 ug/disk relative to control. The class given is functional. More on the design: scale not given: the % may be the effect or the level left.
For the next assay, the system named is Staphylococcus aureus. Kind of assay: Antibacterial activity against Staphylococcus aureus ATCC 29213 at 200 ug/disk. The following applies: read-out: IZ. The class given is functional.
A further assay deals with Bacillus subtilis. Kind of assay: Antibacterial activity against Bacillus subtilis ATCC 6051 at 200 ug/disk. The class given is functional. To be noted: read-out: IZ.

Calls of active or inactive are those of the source. The calls are words filed in the database; no cut-off is given here.

For `C[C@H]1CC[C@@H]2[C@@H](C(=O)c3c(O)c([C@]4(O)CC[C@@H](O)[C@H]5O[C@H]54)c[nH]c3=O)[C@@H](C)C=C[C@H]2C1` [APIOSPORAMIDE], the result in the assay on Candida albicans was inactive. In addition, in the assay on Ascobolus, the Activity came out at 53%. The zone of inhibition at 200 µg/disc in the assay with Staphylococcus aureus was 21 mm; in the assay on Bacillus subtilis, 32 mm.

For the origin of these results see ChEMBL document CHEMBL1150075, “Apiosporamide, a new antifungal agent from the coprophilous fungus Apiospora montagnei” (1994).
